What was measured:
[1] = doses of about 1-2 gm per day, cited from earlier work
[2] = test system: cocaine conditioned mice; settings: 100 mg/kg for 3 days; cited from earlier work
[3] = cited from earlier work

| melting point [°C] | SMILES | steady-state plasma concentration [1] [ng/mL] | time at which steady-state plasma concentration occurs ([1]; post-dose) [h] | relapse-like behavior [2] | mean elimination half-life ([3]; following intravenous infusion (15 min)) [h] | oral bioavailability ([3]; humans, oral) |
| --- | --- | --- | --- | --- | --- | --- |
| 105.3 to 124.9 | CC(=O)NCCCS(=O)(=O)OCC(C)(C)CCC(=O)O [Compound 28, 5-{[3-(Acetylamino)propyl]sulfonyloxy}-4,4-dimethylpentanoic Acid] |  |  |  |  |  |
|  | CC(=O)NCCCS(=O)(=O)O [acamprosate, 3-(Acetylamino)propylsulfonic acid] | 370 to 640 | 3 to 8 | attenuated relapse-like behavior | 3.2 ± 0.2 | about 11% |
